Assay results reported in article PMC8760323, “Single-chain tandem macrocyclic peptides as a scaffold for growth factor and cytokine mimetics” (Communications Biology, 2022).

Columns and labels:
Assay type in all cases: cell-based, human
HuCCT1 cells [1] = assay: Migration assay (Transwell); conditions: 24 h, 1.3 nM rhHGF or 32 nM aMD4dY-PA22; for Relative migration: standardized by mock
Protocol: HuCCT1 cells at a density of 20,000 cells/well in RPMI 1640 medium supplemented with 0.5% FBS were added to 24-well Transwell inserts. In the lower layer, RPMI 1640 supplemented with 0.5% FBS with or without 1.3 nM rhHGF or 32 nM aMD4dY-PA22 was added. The cells were incubated for 24 h in 5% CO2 at 37 °C. The Transwell inserts were washed thrice with PBS, stained with 0.5% crystal violet (Nacalai Tesque)/methanol for 10 min, and washed with distilled water. Images of migrated cells were captured using BZ-X fluorescence microscopy (Keyence Corporation, Osaka, Japan), and cell migration levels were quantified by stained areas of the Transwell inserts.

HuCCT1 cells [2] = assay: Scratch assay (wound healing); conditions: for wound healing compared with no stimulation: 0.41 nM rhHGF or 16 nM aMD4dY-PA22; for Closure rate / Wound closure: 1 to 7 h, 0.41 nM HGF or 16 nM aMD4dY-PA22
Protocol: HuCCT1 cells at a density of 50,000 cells/well in RPMI 1640 medium supplemented with 10% FBS were added to a 96-well cell culture plate and incubated overnight in 5% CO2 at 37 °C to form cellular monolayers. The centers of the cellular monolayers were scratched with 1000 μL micropipette tips and incubated in RPMI 1640 medium supplemented with 0.5% FBS with or without 0.41 nM HGF or 16 nM aMD4dY-PA22 in 5% CO2 at 37 °C. Images of the cells were captured every hour using BioStudio-T (Nikon, Tokyo, Japan). The average wound healing rate was calculated as [(width of the wound 1 h after scratching) − (width of the wound […])]/6.

hPBMCs = assay: Colony-forming assay; conditions: sheet Fig. 4, Fig. 4b
Protocol: Next, 1.1 mL of the mixture was seeded in a 6-well cell culture plate and cultured for 13 days in 5% CO2 at 37 °C. At day 13, colony numbers were counted, and images were taken by inverted microscopy and BZ-X fluorescence microscopy.

HuCCT1 cells [3] = assay: Proliferation assay, HuCCT1 cells; conditions: 5 days, 0.44 nM rhHGF or […] aMD4dY-PA22; for Relative cell growth: normalized by mock
Protocol: The activity of aMD4dY-PA22 against HuCCT1 cell and BM-hMSC proliferation was evaluated. HuCCT1 cells at a density of 5000 cells/well were seeded on a 24-well cell culture plate with RPMI 1640 medium supplemented with 5% FBS with or without 0.44 nM rhHGF or 6.3 nM aMD4dY-PA22. After 5 days of culture in 5% CO2 at 37 °C, the cells were detached by 0.25% trypsin/ethylenediaminetetraacetic acid (EDTA; Thermo Fisher Scientific) and counted using a Countess automated cell counter (Thermo Fisher Scientific).

Met = assay: SRE reporter assay for HGF activity (Erk-SRE, HEK293 cells); conditions: N=1; for Normalized Firefly/Renilla: Fig. S6b/c, 420 nM rhHGF
Protocol: The Met-activating ability of HGF mimetic STaMPtides was evaluated by SRE reporter assay using the SRE reporter vector (QIAGEN, Hilden, Germany) according to the manufacturer’s instructions. Briefly, 1 μL of the SRE reporter vector was mixed with 0.6 μL of Attractene Transfection Reagent (QIAGEN) in 50 μL of Opti-MEM medium (Thermo Fisher Scientific) to form a transfection complex. Next, HEK293 cells at a density of 40,000 cells/well were seeded on 96-well cell culture plates with the transfection complex and incubated overnight in 5% CO2 at 37 °C. The cells were starved with Opti-MEM containing 0.5% FBS, 1% non-essential amino acid solution, and penicillin-streptomycin and incubated at 37 °C for 4 h. Next, the cells were stimulated by rhHGF, purified HGF mimetic STaMPtides, monomeric aMD4dY, or decellularized supernatant overnight in a 5% CO2 incubator at 37 °C. The signal intensity was detected using the dual-luciferase reporter assay system (Promega Corporation) and a Nivo plate reader (PerkinElmer, Inc., Waltham, MA, USA). Reporter activity was calculated as (luminescence intensity of Firefly luciferase)/(luminescence intensity of Renilla luciferase) and normalized by that without a stimulant in order to determine the relative reporter activity.

BM-hMSCs [4] = assay: Proliferation assay, BM-hMSCs (WST-8); conditions: 3 days, 1.3 nM rhHGF or 32 nM aMD4dY-PA22; for WST-8 absorbance, Normalized: normalized by mock
Protocol: BM-hMSC cells at a density of 2500 cells/well were seeded on a 96-well cell culture plate with DMEM supplemented with 10% FBS with or without 1.3 nM rhHGF or 32 nM aMD4dY-PA22. After 3 days of culture in 5% CO2 at 37 °C, Cell Counting Reagent SF (Dojindo Laboratories, Japan) was added to the cells. After 1 h incubation, cell numbers were quantified by detection of absorbance at 450 nm using the Benchmark Plus plate reader (Bio-Rad Laboratories, Hercules, CA, USA).

BM-hMSCs [5] = assay: Cytokine array of conditioned media; conditions: 3 days
Protocol: The conditioned media (supernatant) of BM-hMSCs unstimulated or stimulated with 1.3 nM rhHGF or 32 nM aMD4dY-PA22 for 3 days were filtered using Millex-GV 0.22 µm PVDF membrane filter (Millipore) and analyzed using Human Cytokine Array C5 (Ray Biotech) according to the manufacturer’s instructions. Chemiluminescence was detected using Amersham Imager 600 (Cytiva).

Substance | migration (HuCCT1 cells [1]) | Stained area (HuCCT1 cells [1]; n1) [μm^2] | Stained/Total (HuCCT1 cells [1]; n1) | Stained area (HuCCT1 cells [1]; n2) [μm^2] | Stained/Total (HuCCT1 cells [1]; n2) | Relative migration (HuCCT1 cells [1]; n1) | Relative migration (HuCCT1 cells [1]; n2) | wound healing compared with no stimulation (HuCCT1 cells [2]) [fold] | Closure rate (HuCCT1 cells [2]; replicate 1) [μm/h] | Wound closure (HuCCT1 cells [2]; replicate 1) [μm] | Closure rate (HuCCT1 cells [2]; replicate 2) [μm/h] | Wound closure (HuCCT1 cells [2]; replicate 2) [μm] | Closure rate (HuCCT1 cells [2]; replicate 3) [μm/h] | Wound closure (HuCCT1 cells [2]; replicate 3) [μm] | Closure rate (HuCCT1 cells [2]; replicate 4) [μm/h] | Wound closure (HuCCT1 cells [2]; replicate 4) [μm] | Colony number (hPBMCs; N 1) | Colony number (hPBMCs; N 2) | Colony number (hPBMCs; N 3) | Colony number (hPBMCs; N 4) | also measured
AET - CRQFNRRTHEVWNLDCG - AAPAAPA PAAPAAPA PAAPAA PG - CRQFNRRTHEVWNLDC (bicyclic or more) [aMD4dY-PA22, HGF mimetic STaMPtide, two aMD4dY macrocycles with a 22-amino-acid PA linker, secreted by C. glutamicum] | promoted migration of HuCCT1 cells | 1905662 | 0.07439 | 1256153 | 0.04693 | 4.415 | 2.785 | 1.8 | 104.419 | 626.514 | 110.38 | 662.279 | 95.5447 | 573.268 | 95.787 | 574.722 | 104.419 | 110.38 | 95.5447 | 95.787 | proliferation compared to the unstimulated condition (HuCCT1 cells [3]): twofold; Relative cell growth (HuCCT1 cells [3]; N 1): 2.429; Relative cell growth (HuCCT1 cells [3]; N 2): 2.429; Relative cell growth (HuCCT1 cells [3]; N 3): 2.571; Normalized F/R (Met; Fig. S6d, supernatant, dilution 10): 4.6947; Normalized F/R (Met; Fig. S6d, supernatant, dilution 30): 5.172; Normalized F/R (Met; Fig. S6d, supernatant, dilution 90): 5.6777; Normalized F/R (Met; Fig. S6d, supernatant, dilution 810): 3.099; Normalized F/R (Met; Fig. S6d, supernatant, dilution 2430): 1.722; Erk-SRE reporter activity of decellularized supernatants (Met; rapid screening without purification): highest activity; growth of BM-hMSCs (BM-hMSCs [4]): slightly promoted proliferation; WST-8 absorbance, Normalized (BM-hMSCs [4]; N 1): 1.155; WST-8 absorbance, Normalized (BM-hMSCs [4]; N 2): 1.175; WST-8 absorbance, Normalized (BM-hMSCs [4]; N 3): 1.237; cytokines and growth factors in conditioned supernatant (BM-hMSCs [5]): to the same extent as unstimulated parental BM-hMSCs
rhHGF: recombinant human HGF (R&D Systems) | promoted migration of HuCCT1 cells | 1050763 | 0.03941 | 1394072 | 0.04835 | 2.3393 | 2.87 | 1.6 | 88.8457 | 533.074 | 100.748 | 604.487 | 98.5177 | 591.106 | 94.0632 | 564.379 | 88.8457 | 100.748 | 98.5177 | 94.0632 | proliferation compared to the unstimulated condition (HuCCT1 cells [3]): twofold; Relative cell growth (HuCCT1 cells [3]; N 1): 2.286; Relative cell growth (HuCCT1 cells [3]; N 2): 2.429; Relative cell growth (HuCCT1 cells [3]; N 3): 2.071; Normalized F/R (Met; Fig. S6a, 2.008 pM): 0.9952; Normalized F/R (Met; Fig. S6a, 10.04 pM): 0.9963; Normalized F/R (Met; Fig. S6a, 50.19 pM): 1.192; Normalized F/R (Met; Fig. S6a, 250.9 pM): 3.768; Normalized F/R (Met; Fig. S6a, 1.25471e-9 M): 8.884; Normalized Firefly/Renilla (Met; dilution 1000): 9.87; Normalized Firefly/Renilla (Met; dilution 10000): 1.622; growth of BM-hMSCs (BM-hMSCs [4]): slightly promoted proliferation; WST-8 absorbance, Normalized (BM-hMSCs [4]; N 1): 1.1816; WST-8 absorbance, Normalized (BM-hMSCs [4]; N 2): 1.335; WST-8 absorbance, Normalized (BM-hMSCs [4]; N 3): 1.247; cytokines and growth factors in conditioned supernatant (BM-hMSCs [5]): to the same extent as unstimulated parental BM-hMSCs
